Measurements: US20160368895A1, “PULMONARY HYPERTENSION TREATING AGENT” (THE UNIVERSITY OF TOKYO, priority 2013, published 2016)

target: T1, human PGI2 receptors (hIP) (Homo sapiens, UniProt P43119); experiment: Method A: positive allosteric modulator activity, cAMP in CHO/hIP cells with 100 pM iloprost; format: cell-based; details: cAMP relative to 100 pM iloprost alone, test compound 5 uM
T1 construct: expressed in transfected cells; host or cells: CHO-K1
Protocol: The positive allosteric modulator activity of a test compound was measured as a change in the amount of intracellular cyclic AMP (cAMP) in the presence of 100 pM of the IP agonist iloprost (manufactured by CAYMAN CHEMICAL), using CHO-K1 cells (CHO/hIP cells) in which human PGI2 receptors (hIP) are stably expressed.
An amount of 5 μL of a mixture (diluted in F-12 culture medium (manufactured by GIBCO) including 0.1% BSA) of iloprost dissolved in DMSO and a test compound dissolved in DMSO was dispensed in advance into a 384-well black microplate, and 5 μL of CHO/hIP cells suspended at a concentration of 1.6×10^6 cells/mL in F-12 culture medium including 0.1% BSA were added to the microplate. After 40 minutes of incubation at room temperature, the amount of cAMP was measured using a cAMP assay kit (cAMP HiRange, manufactured by Cisbio Bioassays). Specifically, 5 μL of a cAMP-d2 solution (including a cell lysate) from the kit were added and the reaction was stopped, then 5 μL of a fluorescence-labeled cAMP antibody solution from the kit was added and incubation was performed for 1 hour at room temperature, after which fluorescence was measured using a PHERAstar plate reader (manufactured by BMG) in HTRF (registered trademark) mode. The amount of cAMP in each well was calculated from a cAMP calibration curve obtained using a standard sample, and the activity of each test compound is noted below as a ratio T/C (%) based on the amount of cAMP for 100 pM of isoprost alone. All of the compounds included in this table were purchased from Asinex Corporation.

T1 sequence (P43119 whole entry): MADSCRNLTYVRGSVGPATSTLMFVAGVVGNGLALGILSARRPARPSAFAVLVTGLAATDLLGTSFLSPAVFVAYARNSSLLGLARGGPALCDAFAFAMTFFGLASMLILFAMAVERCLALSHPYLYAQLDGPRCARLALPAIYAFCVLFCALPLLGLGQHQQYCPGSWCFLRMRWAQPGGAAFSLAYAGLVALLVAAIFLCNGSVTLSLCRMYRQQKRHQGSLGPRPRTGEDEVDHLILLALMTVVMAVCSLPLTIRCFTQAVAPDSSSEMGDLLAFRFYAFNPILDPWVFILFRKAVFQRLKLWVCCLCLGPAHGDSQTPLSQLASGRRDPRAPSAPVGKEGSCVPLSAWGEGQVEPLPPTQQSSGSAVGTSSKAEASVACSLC

In order of rising T/C %:
1. COc1ccc(C(c2nnnn2Cc2ccccc2)N2CCc3ccccc3C2)cc1OC (centres unmarked)  90%
2. Cc1ccc(S(=O)(=O)Cn2nnnc2C(c2ccc(O)cc2)N2CCc3ccccc3C2)cc1 (centres unmarked)  104%
3. Cc1ccc(C(c2nnnn2C(C)(C)C)N2CCc3ccccc3C2)cc1 (centres unmarked) [drawing 143]  112%
4. CC(C)(C)n1nnnc1C(c1ccc(Cl)cc1)N1CCc2ccccc2C1 (centres unmarked) [drawing 118]  113%

same assay, conditions: cAMP relative to 100 pM iloprost alone, test compound 10 uM

In order of rising T/C %:
1. COc1ccc(OC)c(C(c2nnnn2CCc2ccccc2)N2CCc3ccccc3C2)c1 (centres unmarked)  78%
2. COc1ccc(OC)c(C(c2nnnn2C2CCCCC2)N2CCc3ccccc3C2)c1 (centres unmarked)  82%
3. COc1ccc(C(c2nnnn2C2CCCCC2)N2CCc3ccccc3C2)cc1OC (centres unmarked)  87%
4. COc1ccc(OC)c(C(c2nnnn2Cc2ccccc2)N2CCc3ccccc3C2)c1 (centres unmarked)  90%
5. COc1ccc(OC)c(C(c2nnnn2Cc2ccc(C)cc2)N2CCc3ccccc3C2)c1 (centres unmarked)  91%
6. COc1cc(C(c2nnnn2CCc2ccccc2)N2CCc3ccccc3C2)ccc1O (centres unmarked)  91%
7. COc1ccc(C(c2nnnn2C2CCCC2)N2CCc3ccccc3C2)cc1OC (centres unmarked)  93%
8. COc1cc(C(c2nnnn2Cc2ccccc2)N2CCc3ccccc3C2)ccc1O (centres unmarked)  94%
9. COCCn1nnnc1C(c1ccc(F)cc1)N1CCc2ccccc2C1 (centres unmarked)  96%
10. COCCn1nnnc1C(c1ccc(O)cc1OC)N1CCc2ccccc2C1 (centres unmarked)  97%
11. COc1cc(C(c2nnnn2C2CCCCC2)N2CCc3ccccc3C2)ccc1O (centres unmarked)  97%
12. COCCn1nnnc1C(c1ccc(OC)c(OC)c1)N1CCc2ccccc2C1 (centres unmarked)  98%
13. CCC(C)(C)n1nnnc1C(c1cc(OC)ccc1O)N1CCc2ccccc2C1 (centres unmarked)  100%
14. Cc1ccc(C(c2nnnn2C2CCCCC2)N2CCc3ccccc3C2)cc1 (centres unmarked)  100%
15. Cc1ccc(C(c2nnnn2Cc2ccccc2)N2CCc3ccccc3C2)cc1 (centres unmarked) [drawing 140]  102%
16. Cc1ccc(S(=O)(=O)Cn2nnnc2C(c2ccc(C(F)(F)F)cc2)N2CCc3ccccc3C2)cc1 (centres unmarked)  102%
17. COc1ccc(C(c2nnnn2Cc2ccccc2)N2CCc3ccccc3C2)c(OC)c1 (centres unmarked)  103%
18. CN(C)c1ccc(C(c2nnnn2C2CCCC2)N2CCc3ccccc3C2)cc1 (centres unmarked)  103%
19. CCC(C)(C)n1nnnc1C(c1ccc(OC)c(OC)c1)N1CCc2ccccc2C1 (centres unmarked)  103%
20. COc1ccc(C(c2nnnn2C(C)(C)C)N2CCc3ccccc3C2)cc1OC (centres unmarked)  103%
21. Fc1ccc(C(c2nnnn2CCc2ccccc2)N2CCc3ccccc3C2)cc1 (centres unmarked)  103%
22. Fc1ccc(C(c2nnnn2C2CCCCC2)N2CCc3ccccc3C2)cc1 (centres unmarked)  104%
23. Oc1ccc(C(c2nnnn2C2CCCCC2)N2CCc3ccccc3C2)cc1 (centres unmarked)  104%
24. COc1ccc(Cn2nnnc2C(c2ccc(OC)cc2)N2CCc3ccccc3C2)cc1 (centres unmarked)  105%
25. Oc1ccc(C(c2nnnn2C2CCCC2)N2CCc3ccccc3C2)cc1 (centres unmarked)  105%
26. COCCn1nnnc1C(c1ccccc1OC)N1CCc2ccccc2C1 (centres unmarked)  107%
27. Cc1ccc(C(c2nnnn2CCc2ccccc2)N2CCc3ccccc3C2)cc1 (centres unmarked)  108%
28. Fc1ccc(C(c2nnnn2C2CCCC2)N2CCc3ccccc3C2)cc1 (centres unmarked)  108%
29. Cc1ccc(Cn2nnnc2C(c2ccc(Cl)cc2)N2CCc3ccccc3C2)cc1 (centres unmarked)  109%
30. COc1ccc(C(c2nnnn2Cc2ccccc2)N2CCc3ccccc3C2)cc1 (centres unmarked)  110%
31. COc1ccc(C(c2nnnn2C2CCCCC2)N2CCc3ccccc3C2)cc1 (centres unmarked)  111%
32. COc1ccc(C(c2nnnn2Cc2ccc(C)cc2)N2CCc3ccccc3C2)cc1 (centres unmarked)  112%
33. COc1ccc(C(c2nnnn2C2CCCCC2)N2CCc3ccccc3C2)c(OC)c1 (centres unmarked)  113%
34. COc1ccc(C(c2nnnn2CCc2ccccc2)N2CCc3ccccc3C2)cc1 (centres unmarked)  114%
35. Cc1ccc(C(c2nnnn2Cc2ccc(F)cc2)N2CCc3ccccc3C2)cc1 (centres unmarked)  117%
36. Cc1ccc(Cn2nnnc2C(c2ccccc2)N2CCc3ccccc3C2)cc1 (centres unmarked)  117%
37. c1ccc(CCn2nnnc2C(c2ccccc2)N2CCc3ccccc3C2)cc1 (centres unmarked) [drawing 106]  128%
